# Experimental data taken from patent US9573911B2, “Diphosphate mimetics and uses thereof” (President and Fellows of Harvard College, priority 2011, dated 2017).
# How the values were obtained:
# Test in all cases: Further kinase screen, Invitrogen Z'-LYTE
# Format in all cases: biochemical
# Conditions in all cases: Table 3
# [1] = target: T1, MAPKAPK2 (Homo sapiens, UniProt P49137)
# T1 construct: purchased Invitrogen
# Experimental: (§1) Kinase profiling was conducted using Invitrogen Z'-LYTE screening protocol and assay conditions found at www.invitrogen.com. Compound (2) inhibited PLK1 completely at 5 μM.
# (§2) A further kinase screen was performed on Compounds (2), (4A), and (4B) using the assay described above.
# [2] = target: T2, RPS6KA3 (RSK2) (Homo sapiens, UniProt P51812)
# T2 construct: purchased Invitrogen
# Experimental: as §1, §2
# [3] = target: T3, RPS6KA5 (MSK1) (Homo sapiens, UniProt O75582)
# T3 construct: purchased Invitrogen
# Experimental: as §1, §2
# [4] = target: T4, JAK3 (Homo sapiens, UniProt P52333)
# T4 construct: purchased Invitrogen
# T4 sequence (P52333 1-1124): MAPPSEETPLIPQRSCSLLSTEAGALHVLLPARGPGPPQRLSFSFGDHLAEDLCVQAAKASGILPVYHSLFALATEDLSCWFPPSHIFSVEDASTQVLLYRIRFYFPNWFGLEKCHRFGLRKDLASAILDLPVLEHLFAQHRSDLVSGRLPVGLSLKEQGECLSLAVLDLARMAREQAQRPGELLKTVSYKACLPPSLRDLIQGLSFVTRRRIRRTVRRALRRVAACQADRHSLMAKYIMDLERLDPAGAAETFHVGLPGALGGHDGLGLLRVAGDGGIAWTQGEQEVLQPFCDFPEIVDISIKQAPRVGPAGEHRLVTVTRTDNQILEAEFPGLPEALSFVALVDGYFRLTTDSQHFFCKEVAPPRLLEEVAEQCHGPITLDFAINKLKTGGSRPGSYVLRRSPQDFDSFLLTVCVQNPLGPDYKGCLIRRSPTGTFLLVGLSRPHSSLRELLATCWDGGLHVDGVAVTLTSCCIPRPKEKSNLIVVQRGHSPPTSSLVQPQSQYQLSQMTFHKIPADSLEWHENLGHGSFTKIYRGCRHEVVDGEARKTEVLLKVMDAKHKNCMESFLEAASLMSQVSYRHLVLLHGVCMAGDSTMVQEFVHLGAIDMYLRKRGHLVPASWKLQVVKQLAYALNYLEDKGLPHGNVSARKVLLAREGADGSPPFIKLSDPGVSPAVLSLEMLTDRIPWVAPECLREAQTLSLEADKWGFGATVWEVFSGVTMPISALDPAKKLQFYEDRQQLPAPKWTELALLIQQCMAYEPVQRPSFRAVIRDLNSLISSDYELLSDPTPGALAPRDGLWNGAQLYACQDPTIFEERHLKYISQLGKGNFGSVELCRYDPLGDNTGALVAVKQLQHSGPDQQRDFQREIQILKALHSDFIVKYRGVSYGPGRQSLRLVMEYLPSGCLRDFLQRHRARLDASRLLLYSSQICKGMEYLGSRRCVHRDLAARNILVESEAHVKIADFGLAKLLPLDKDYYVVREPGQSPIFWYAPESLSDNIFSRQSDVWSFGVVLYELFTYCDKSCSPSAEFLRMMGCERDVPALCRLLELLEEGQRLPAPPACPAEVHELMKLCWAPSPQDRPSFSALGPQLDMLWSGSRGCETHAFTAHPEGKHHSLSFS
# Experimental: as §1, §2
# [5] = target: T5, SYK (Homo sapiens, UniProt P43405)
# T5 construct: purchased Invitrogen
# Experimental: as §1, §2
# [6] = target: T6, CAMK2A (CaMKII alpha) (Homo sapiens, UniProt Q9UQM7)
# T6 construct: purchased Invitrogen
# Experimental: as §1, §2
# [7] = target: T7, RPS6KB1 (p70S6K) (Homo sapiens, UniProt P23443)
# T7 construct: purchased Invitrogen
# Experimental: as §1, §2
# [8] = target: T8, CSNK1G3 (CK1 gamma 3) (Homo sapiens, UniProt Q9Y6M4)
# T8 construct: purchased Invitrogen
# Experimental: as §1, §2
# [9] = target: T9, MARK3 (Homo sapiens, UniProt P27448)
# T9 construct: purchased Invitrogen
# Experimental: as §1, §2
# T8 sequence (Q9Y6M4 whole entry): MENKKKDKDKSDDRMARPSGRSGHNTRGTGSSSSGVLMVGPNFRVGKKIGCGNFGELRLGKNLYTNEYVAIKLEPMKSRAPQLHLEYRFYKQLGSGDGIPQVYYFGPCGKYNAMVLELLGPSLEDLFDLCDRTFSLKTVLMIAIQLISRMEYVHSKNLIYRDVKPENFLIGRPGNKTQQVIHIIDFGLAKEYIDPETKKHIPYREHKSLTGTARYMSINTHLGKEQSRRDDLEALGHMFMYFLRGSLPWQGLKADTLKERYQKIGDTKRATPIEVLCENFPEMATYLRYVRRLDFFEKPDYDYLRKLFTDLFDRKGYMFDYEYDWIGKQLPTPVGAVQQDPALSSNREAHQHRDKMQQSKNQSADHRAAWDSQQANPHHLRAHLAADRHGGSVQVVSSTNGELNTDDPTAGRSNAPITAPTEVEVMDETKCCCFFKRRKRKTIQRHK
# T9 sequence (P27448 whole entry): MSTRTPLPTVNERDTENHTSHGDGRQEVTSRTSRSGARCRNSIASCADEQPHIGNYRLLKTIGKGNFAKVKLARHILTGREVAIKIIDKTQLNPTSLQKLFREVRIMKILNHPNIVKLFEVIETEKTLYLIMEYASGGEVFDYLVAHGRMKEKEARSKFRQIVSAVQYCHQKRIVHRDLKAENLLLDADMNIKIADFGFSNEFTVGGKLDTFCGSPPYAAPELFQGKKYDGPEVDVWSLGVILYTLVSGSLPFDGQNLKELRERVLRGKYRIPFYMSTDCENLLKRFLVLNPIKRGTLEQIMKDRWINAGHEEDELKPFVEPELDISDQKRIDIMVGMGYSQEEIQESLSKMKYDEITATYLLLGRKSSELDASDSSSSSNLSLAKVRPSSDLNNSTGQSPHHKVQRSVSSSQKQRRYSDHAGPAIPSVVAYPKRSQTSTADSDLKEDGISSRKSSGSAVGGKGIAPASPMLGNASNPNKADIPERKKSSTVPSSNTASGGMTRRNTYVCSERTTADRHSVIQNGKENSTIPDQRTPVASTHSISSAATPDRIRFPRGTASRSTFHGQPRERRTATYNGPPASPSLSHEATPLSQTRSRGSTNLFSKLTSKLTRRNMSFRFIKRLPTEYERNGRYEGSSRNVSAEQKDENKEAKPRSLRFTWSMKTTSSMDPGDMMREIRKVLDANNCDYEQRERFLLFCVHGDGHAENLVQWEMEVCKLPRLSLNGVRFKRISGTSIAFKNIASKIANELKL
# T2 sequence (P51812 whole entry): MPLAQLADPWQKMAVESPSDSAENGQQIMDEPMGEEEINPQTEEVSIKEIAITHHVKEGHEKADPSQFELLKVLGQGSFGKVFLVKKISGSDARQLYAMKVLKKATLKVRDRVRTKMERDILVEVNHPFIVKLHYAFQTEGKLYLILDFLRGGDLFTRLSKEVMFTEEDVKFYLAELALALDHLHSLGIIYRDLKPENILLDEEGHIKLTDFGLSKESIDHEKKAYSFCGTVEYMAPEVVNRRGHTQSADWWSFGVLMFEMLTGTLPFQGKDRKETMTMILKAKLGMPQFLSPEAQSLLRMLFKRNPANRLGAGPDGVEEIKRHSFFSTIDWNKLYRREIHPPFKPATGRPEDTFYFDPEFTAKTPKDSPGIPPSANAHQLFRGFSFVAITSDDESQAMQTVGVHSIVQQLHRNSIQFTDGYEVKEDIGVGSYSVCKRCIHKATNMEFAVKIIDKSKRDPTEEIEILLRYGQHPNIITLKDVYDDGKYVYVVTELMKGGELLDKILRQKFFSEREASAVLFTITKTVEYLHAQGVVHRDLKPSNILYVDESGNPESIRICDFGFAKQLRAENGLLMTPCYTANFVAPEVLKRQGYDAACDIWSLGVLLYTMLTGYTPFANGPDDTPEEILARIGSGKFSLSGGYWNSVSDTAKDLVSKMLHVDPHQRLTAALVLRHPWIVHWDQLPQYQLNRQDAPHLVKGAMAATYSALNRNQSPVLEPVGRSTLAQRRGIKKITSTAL
# T3 sequence (O75582 whole entry): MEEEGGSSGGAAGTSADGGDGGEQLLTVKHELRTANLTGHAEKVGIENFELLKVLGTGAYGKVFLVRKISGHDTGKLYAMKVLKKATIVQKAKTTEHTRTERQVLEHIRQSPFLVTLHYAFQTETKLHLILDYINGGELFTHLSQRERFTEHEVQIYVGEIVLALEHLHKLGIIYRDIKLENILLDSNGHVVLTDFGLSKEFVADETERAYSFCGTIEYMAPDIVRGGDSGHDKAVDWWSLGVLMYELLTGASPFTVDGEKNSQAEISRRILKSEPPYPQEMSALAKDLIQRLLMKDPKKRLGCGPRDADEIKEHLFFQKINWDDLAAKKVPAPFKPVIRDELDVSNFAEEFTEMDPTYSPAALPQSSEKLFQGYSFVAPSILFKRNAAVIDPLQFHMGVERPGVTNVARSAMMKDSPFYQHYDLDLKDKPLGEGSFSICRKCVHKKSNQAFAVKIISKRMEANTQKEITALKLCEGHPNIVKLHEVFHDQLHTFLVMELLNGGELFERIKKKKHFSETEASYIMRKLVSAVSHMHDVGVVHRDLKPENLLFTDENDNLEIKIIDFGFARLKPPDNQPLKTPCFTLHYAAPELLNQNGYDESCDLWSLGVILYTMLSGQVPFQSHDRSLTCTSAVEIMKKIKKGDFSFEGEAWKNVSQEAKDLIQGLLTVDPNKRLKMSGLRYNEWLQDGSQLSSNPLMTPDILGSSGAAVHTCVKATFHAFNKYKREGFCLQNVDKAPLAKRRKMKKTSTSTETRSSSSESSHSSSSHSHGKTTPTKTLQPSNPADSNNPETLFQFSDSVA
# T7 sequence (P23443 whole entry): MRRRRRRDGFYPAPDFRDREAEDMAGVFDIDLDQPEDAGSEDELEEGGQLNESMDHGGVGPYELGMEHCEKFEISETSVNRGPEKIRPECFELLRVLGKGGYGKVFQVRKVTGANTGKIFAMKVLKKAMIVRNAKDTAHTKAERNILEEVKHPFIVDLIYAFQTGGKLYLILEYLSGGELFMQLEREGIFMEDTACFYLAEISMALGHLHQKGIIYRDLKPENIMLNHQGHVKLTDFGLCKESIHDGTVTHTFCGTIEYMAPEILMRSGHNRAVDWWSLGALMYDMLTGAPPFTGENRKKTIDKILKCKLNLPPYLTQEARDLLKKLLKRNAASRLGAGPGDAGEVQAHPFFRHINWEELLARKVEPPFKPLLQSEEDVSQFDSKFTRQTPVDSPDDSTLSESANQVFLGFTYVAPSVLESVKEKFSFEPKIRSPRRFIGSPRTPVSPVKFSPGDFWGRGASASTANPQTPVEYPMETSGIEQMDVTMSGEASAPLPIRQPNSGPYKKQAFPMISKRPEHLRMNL
# T1 sequence (P49137 whole entry): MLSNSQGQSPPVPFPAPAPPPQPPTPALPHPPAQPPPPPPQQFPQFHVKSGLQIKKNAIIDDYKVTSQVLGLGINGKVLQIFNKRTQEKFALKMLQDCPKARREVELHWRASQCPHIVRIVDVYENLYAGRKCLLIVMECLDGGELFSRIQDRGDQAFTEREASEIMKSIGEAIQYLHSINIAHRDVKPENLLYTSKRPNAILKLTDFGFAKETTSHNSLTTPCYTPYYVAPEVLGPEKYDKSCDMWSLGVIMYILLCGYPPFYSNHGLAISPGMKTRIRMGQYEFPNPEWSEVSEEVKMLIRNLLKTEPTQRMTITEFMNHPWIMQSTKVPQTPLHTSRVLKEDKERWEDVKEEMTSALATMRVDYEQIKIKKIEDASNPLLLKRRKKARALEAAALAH
SMILES,% Inhibition Point 1 [1],% Inhibition Point 2 [1],% Inhibition mean [1],% Inhibition Point 1 [2],% Inhibition Point 2 [2],% Inhibition mean [2],% Inhibition Point 1 [3],% Inhibition Point 2 [3],% Inhibition mean [3],% Inhibition Point 1 [4],% Inhibition Point 2 [4],% Inhibition mean [4],% Inhibition Point 1 [5],% Inhibition Point 2 [5],% Inhibition mean [5],% Inhibition Point 1 [6],% Inhibition Point 2 [6],% Inhibition mean [6],% Inhibition Point 1 [7],% Inhibition Point 2 [7],also measured
COc1ccc(OC(=O)n2c(=O)oc3cc(C(C)=O)ccc32)cc1 [Compound 2],0%,−10%,−5%,−200%,−212%,−206%,−215%,−231%,−223%,−90%,−83%,−86%,4%,−4%,0%,−14%,−10%,−12%,−138%,−122%,% Inhibition mean [7]: −130%; % Inhibition Point 1 [8]: 13%; % Inhibition Point 2 [8]: 16%; % Inhibition mean [8]: 14%
COc1ccc(OC(=S)n2c(=O)oc3cc(C(C)=O)ccc32)cc1 [Compound 4A],48%,53%,51%,55%,56%,55%,35%,32%,33%,41%,30%,36%,21%,24%,23%,20%,24%,22%,19%,22%,% Inhibition mean [7]: 21%; % Inhibition Point 1 [9]: 8%; % Inhibition Point 2 [9]: 12%; % Inhibition mean [9]: 10%; % Inhibition Point 1 [8]: 30%; % Inhibition Point 2 [8]: 31%; % Inhibition mean [8]: 31%
COc1ccc(OC(=O)n2c(=S)oc3cc(C(C)=O)ccc32)cc1 [Compound 4B],90%,90%,90%,58%,64%,61%,49%,48%,49%,65%,64%,65%,58%,54%,56%,57%,55%,56%,35%,44%,% Inhibition mean [7]: 40%; % Inhibition Point 1 [9]: 34%; % Inhibition Point 2 [9]: 36%; % Inhibition mean [9]: 35%; % Inhibition Point 1 [8]: 51%; % Inhibition Point 2 [8]: 48%; % Inhibition mean [8]: 49%
